From PMC5814047, “Peptidic inhibitors of insulin-degrading enzyme with potential for dermatological applications discovered via phage display” (PLoS ONE, 2018)
Bridge positions count the residues as written; N and C are the ends. Peptide text beside a SMILES is read from it.

Biological target: T1, IDE (Homo sapiens, UniProt P14735)
T1 construct: made in house; host or cells: bacteria
T1 sequence (P14735 1-1019): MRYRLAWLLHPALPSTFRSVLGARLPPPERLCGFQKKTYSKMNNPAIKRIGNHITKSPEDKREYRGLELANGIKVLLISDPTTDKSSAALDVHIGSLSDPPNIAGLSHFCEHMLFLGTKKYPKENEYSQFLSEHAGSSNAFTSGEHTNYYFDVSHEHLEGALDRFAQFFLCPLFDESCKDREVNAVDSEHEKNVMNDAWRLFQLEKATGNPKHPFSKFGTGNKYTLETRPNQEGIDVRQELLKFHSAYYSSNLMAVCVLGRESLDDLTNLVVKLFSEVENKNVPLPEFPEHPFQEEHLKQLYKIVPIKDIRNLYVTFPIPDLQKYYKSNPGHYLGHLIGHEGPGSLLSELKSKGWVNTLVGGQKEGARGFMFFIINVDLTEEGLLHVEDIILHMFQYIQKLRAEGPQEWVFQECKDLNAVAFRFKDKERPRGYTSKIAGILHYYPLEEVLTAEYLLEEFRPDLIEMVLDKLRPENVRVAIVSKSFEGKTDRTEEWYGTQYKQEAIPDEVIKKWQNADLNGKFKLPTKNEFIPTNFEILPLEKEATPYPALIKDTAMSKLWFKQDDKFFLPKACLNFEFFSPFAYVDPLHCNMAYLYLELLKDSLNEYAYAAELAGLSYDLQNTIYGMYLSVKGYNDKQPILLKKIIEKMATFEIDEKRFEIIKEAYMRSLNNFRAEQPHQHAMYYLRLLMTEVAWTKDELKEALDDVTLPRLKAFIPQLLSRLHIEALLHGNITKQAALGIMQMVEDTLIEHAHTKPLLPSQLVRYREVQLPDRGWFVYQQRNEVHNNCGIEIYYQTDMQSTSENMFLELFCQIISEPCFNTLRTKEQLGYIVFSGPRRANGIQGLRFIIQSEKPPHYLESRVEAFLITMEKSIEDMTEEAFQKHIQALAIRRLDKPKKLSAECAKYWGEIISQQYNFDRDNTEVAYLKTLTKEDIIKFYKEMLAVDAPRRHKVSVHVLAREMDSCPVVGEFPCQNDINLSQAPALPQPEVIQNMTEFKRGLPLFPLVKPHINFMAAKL
Test: IDE activity assay, FAßB (amyloid ß-protein) degradation (fluorescence polarization)
Type: biochemical
Method: Taken together with the potency of all peptides against insulin (Table 1), we concluded that P12-3A represented the best inhibitor for further studies, and a highly purified, deliberately cyclized version (Fig 3A) was synthesized. […] Based on its potency, stability and selectivity for IDE, P12-3A was selected for use in downstream assays.
IDE activity was quantified by monitoring the degradation of Mca-[…](Dnp) (FRET1, 5 μM), fluoresceinated and biotinylated amyloid ß-protein (FAßB; 500 nM) or recombinant human insulin (50 nM) in PBS supplemented with 0.05% BSA. FRET1 degradation was measured by changes in fluorescence (λex = 340 nm, λem = 420 nm); FAßB degradation was monitored by fluorescence polarization (λex = 488 nm, λem = 525 nm), as described; and insulin degradation was quantified by ELISA. In vitro activity assays incorporated recombinant human IDE (1 nM) purified from bacteria. For quantitation of insulin degradation in primary murine skin fibroblasts, cells (1 x 10^5/well) were plated in 96-well plates and maintained in DMEM supplemented with 10% fetal bovine serum (FBS), 2mM glutamine, penicillin and streptomycin. After addition of insulin (10 nM or 100 nM), samples of conditioned medium were removed daily and quickly frozen, then insulin levels were quantified in parallel by ELISA according to manufacturer’s recommendations (Crystal Chem, Downers Grove, IL, USA). Assessment of the activity of P12-3A against a variety of matrix-metalloproteases was conducted using the Matrix Metalloproteinase (MMP) Inhibitor Profiling Kit, Fluorometric RED (Enzo Life Sciences, Inc., Farmingdale, NY, USA) according to manufacturer’s recommendations using the broad-spectrum MMP inhibitor, NNGH, as a positive control.

Q: For `CC(C)C[C@H](NC(=O)[C@H](CO)NC(=O)[C@@H](N)CCC(N)=O)C(=O)N1CCC[C@H]1C(=O)N[C@@H](Cc1c[nH]c2ccccc12)C(=O)N[C@H]1CSSC[C@@H](C(=O)N[C@H](C(=O)N[C@H](C(N)=O)[C@@H](C)O)C(C)C)NC(=O)[C@H](Cc2c[nH]cn2)NC(=O)[C@@H]2CCCN2C(=O)[C@H](Cc2ccc(O)cc2)NC1=O` [P12-3A] (H-QSLPWCYPHCVT-NH2; disulfide 6-10 (inferred)), which remaining activity at 0.0005 µM (FAßB, P12-3A 0.0005 uM, Replicates 4-6, read-out: Percent Activity (normalized source data)) is on record?
A: 103%

Q: What about the remaining activity at 0.0016 µM (FAßB, P12-3A 0.0016 uM, Replicates 4-6, read-out: Percent Activity (normalized source data)) of the same compound?
A: 102%

Q: What about the remaining activity at 0.005 µM (FAßB, P12-3A 0.005 uM, Replicates 4-6, read-out: Percent Activity (normalized source data)) of the same compound?
A: 103%

Q: And the remaining activity at 0.016 µM (FAßB, P12-3A 0.016 uM, Replicates 4-6, read-out: Percent Activity (normalized source data))?
A: 77.6%

Q: What about the remaining activity at 0.05 µM (FAßB, P12-3A 0.050 uM, Replicates 4-6, read-out: Percent Activity (normalized source data)) of the same compound?
A: 88.7%

Q: And the remaining activity at 0.12 µM (FAßB, P12-3A 0.12 uM, Replicates 1-3, read-out: Percent Activity (normalized source data))?
A: 96.6%

Q: What about the remaining activity at 0.16 µM (FAßB, P12-3A 0.16 uM, Replicates 4-6, read-out: Percent Activity (normalized source data)) of the same compound?
A: 93.1%

Q: What about the remaining activity at 0.24 µM (FAßB, P12-3A 0.24 uM, Replicates 1-3, read-out: Percent Activity (normalized source data)) of the same compound?
A: 79.9%

Q: And the remaining activity at 0.49 µM (FAßB, P12-3A 0.49 uM, Replicates 1-3, read-out: Percent Activity (normalized source data))?
A: 73.7%

Q: And the remaining activity at 0.5 µM (FAßB, P12-3A 0.50 uM, Replicates 4-6, read-out: Percent Activity (normalized source data))?
A: 85.8%

Q: And the remaining activity at 0.98 µM (FAßB, P12-3A 0.98 uM, Replicates 1-3, read-out: Percent Activity (normalized source data))?
A: 66.9%

Q: What about the remaining activity at 1.6 µM (FAßB, P12-3A 1.6 uM, Replicates 4-6, read-out: Percent Activity (normalized source data)) of the same compound?
A: 61.7%

Q: What about the remaining activity at 3.91 µM (FAßB, P12-3A 3.91 uM, Replicates 1-3, read-out: Percent Activity (normalized source data)) of the same compound?
A: 48.4%

Q: And the remaining activity at 5 µM (FAßB, P12-3A 5.0 uM, Replicates 4-6, read-out: Percent Activity (normalized source data))?
A: 48.4%

Q: What about the remaining activity at 7.81 µM (FAßB, P12-3A 7.81 uM, Replicates 1-3, read-out: Percent Activity (normalized source data)) of the same compound?
A: 43.4%

Q: And the remaining activity at 15.6 µM (FAßB, P12-3A 15.6 uM, Replicates 1-3, read-out: Percent Activity (normalized source data))?
A: 45.5%

Q: What about the remaining activity at 31.2 µM (FAßB, P12-3A 31.2 uM, Replicates 1-3, read-out: Percent Activity (normalized source data)) of the same compound?
A: 38.5%

Q: And the remaining activity at 62.5 µM (FAßB, P12-3A 62.5 uM, Replicates 1-3, read-out: Percent Activity (normalized source data))?
A: 10.9%

Q: And the remaining activity at 250 µM (FAßB, P12-3A 250 uM, Replicates 1-3, read-out: Percent Activity (normalized source data))?
A: 9.54%

Q: And the “inhibition of IDE in the selectivity panel” value (P12-3A 100 μM, S4 Fig)?
A: significant inhibition was observed exclusively for IDE
